Some results are limits rather than exact numbers.

The test addresses T1, BaF3 BRAF-KIAA1549 fusion cells (Homo sapiens, UniProt P15056).
T1 construct: The BRAF-KIAA1549 fusion mutant was subcloned into pMXs-IRES-Blasticidin (RTV-016, Cell Biolabs, San Diego, CA); fused on or other part: Q9HCM3 (UPF0606 protein KIAA1549)
The test is described as follows: BaF3 BRAF-KIAA1549 fusion cell proliferation assay (CellTiterGlo). Type of test: cell-based. The conditions noted are these: 96 hours incubation, potency code. The method, boiled down: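 BaF3 cells stably transduced with a BRAF-KIAA1549 fusion, blasticidin-selected and growing without IL-3, were treated with compound for 96 h in RPMI/10% heat-inactivated FBS. Viability read as ATP content by CellTiterGlo luminescence, normalised to DMSO-treated cells. IC50 by Levenberg-Marquardt fit.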

T1 sequence (P15056 whole entry, change not shown, the tested form may be a part): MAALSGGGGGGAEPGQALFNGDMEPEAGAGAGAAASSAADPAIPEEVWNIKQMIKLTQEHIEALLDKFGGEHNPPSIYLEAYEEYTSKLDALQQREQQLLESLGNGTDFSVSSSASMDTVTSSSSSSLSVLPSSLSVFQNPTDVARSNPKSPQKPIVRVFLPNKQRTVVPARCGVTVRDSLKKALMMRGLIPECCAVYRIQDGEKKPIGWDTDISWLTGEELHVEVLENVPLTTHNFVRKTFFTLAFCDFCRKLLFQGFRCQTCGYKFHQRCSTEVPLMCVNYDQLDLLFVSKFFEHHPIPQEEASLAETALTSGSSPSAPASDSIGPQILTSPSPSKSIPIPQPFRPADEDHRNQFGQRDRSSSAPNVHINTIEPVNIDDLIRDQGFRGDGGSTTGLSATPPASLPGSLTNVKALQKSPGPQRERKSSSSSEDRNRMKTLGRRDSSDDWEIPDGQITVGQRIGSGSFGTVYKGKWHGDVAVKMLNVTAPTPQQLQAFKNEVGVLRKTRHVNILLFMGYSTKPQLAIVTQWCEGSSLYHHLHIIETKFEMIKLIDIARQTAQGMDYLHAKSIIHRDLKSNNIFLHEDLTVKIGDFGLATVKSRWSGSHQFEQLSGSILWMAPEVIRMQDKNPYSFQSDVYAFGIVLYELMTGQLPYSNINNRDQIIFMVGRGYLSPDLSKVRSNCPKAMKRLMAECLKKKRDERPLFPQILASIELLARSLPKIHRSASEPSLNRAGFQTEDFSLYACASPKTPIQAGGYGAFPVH

As to `Cc1ccc(NC(=O)c2cc(C(F)(F)F)c(OC3COC3)cn2)cc1Nc1ncccc1-c1ncnc2[nH]cnc12` [IA-95, N-(3-(3-(9H-purin-6-yl)pyridin-2-ylamino)-4-methylphenyl)-5-(oxetan-3-yloxy)-4-(trifluoromethyl)picolinamide], the GI50 was less than 0.02 µM. With `Cc1ccc(NC(=O)c2cc(C(F)(F)F)c(OC3CNC3)cn2)cc1Nc1ncccc1-c1ncnc2[nH]cnc12` [IA-96, N-(3-(3-(9H-purin-6-yl)pyridin-2-ylamino)-4-methylphenyl)-5-(azetidin-3-yloxy)-4-(trifluoromethyl)picolinamide], the 50% growth inhibitory concentration (GI50) is 0.02 to 0.1 µM. The figure for `Cc1ccc(NC(=O)c2cc(C(F)(F)F)c(OCCN(C)C)cn2)cc1Nc1ncccc1-c1ncnc2[nH]cnc12` [IA-97, N-(3-(3-(9H-purin-6-yl)pyridin-2-ylamino)-4-methylphenyl)-5-(2-(dimethylamino)ethoxy)-4-(trifluoromethyl)picolinamide] is less than 0.02 µM. The figure for `Cc1ccc(NC(=O)c2cc(C(F)(F)F)cc(OCCO)n2)cc1Nc1ncccc1-c1ncnc2[nH]cnc12` [IA-98, N-(3-((3-(9H-purin-6-yl)pyridin-2-yl)amino)-4-methylphenyl)-6-(2-hydroxyethoxy)-4-(trifluoromethyl)picolinamide] is less than 0.02 µM. The figure for `Cc1ccc(NC(=O)CC2CCCCOC2)cc1Nc1ncccc1-c1ncnc2[nH]cnc12` (centres unmarked) [IA-99, N-(3-(3-(9H-purin-6-yl)pyridin-2-ylamino)-4-methylphenyl)-2-(oxepan-3-yl)acetamide] is 0.02 to 0.1 µM. Compound `COc1cnc(C(=O)Nc2ccc(C)c(Nc3ncccc3-c3ncnc4[nH]cnc34)c2)cc1C(F)(F)F` [IA-100, N-(3-(3-(9H-purin-6-yl)pyridin-2-ylamino)-4-methylphenyl)-5-methoxy-4-(trifluoromethyl)picolinamide] displayed a GI50 of 0.02 to 0.1 µM. To `COc1c(C(F)(F)F)ccnc1C(=O)Nc1ccc(C)c(Nc2ncccc2-c2ncnc3[nH]cnc23)c1` [IA-101, N-(3-(3-(9H-purin-6-yl)pyridin-2-ylamino)-4-methylphenyl)-3-methoxy-4-(trifluoromethyl)picolinamide] belongs less than 0.02 µM; to `Cc1ccc(NC(=O)CC2CCCOCC2)cc1Nc1ncccc1-c1ncnc2[nH]cnc12` (centres unmarked) [IA-102, N-(3-(3-(9H-purin-6-yl)pyridin-2-ylamino)-4-methylphenyl)-2-(oxepan-4-yl)acetamide], 0.1 to 0.5 µM; to `Cc1ccc(NC(=O)CN2CCC[C@H](C(F)(F)F)C2)cc1Nc1ncccc1-c1ncnc2[nH]cnc12` [IA-103, (S)—N-(3-(3-(9H-purin-6-yl)pyridin-2-ylamino)-4-methylphenyl)-2-(3-(trifluoromethyl)piperidin-1-yl)acetamide], less than 0.02 µM. The figure for `Cc1ccc(NC(=O)c2cc(C(F)(F)F)c(OCCO)cn2)cc1Nc1ncccc1-c1ncnc2[nH]cnc12` [IA-104, N-(3-(3-(9H-purin-6-yl)pyridin-2-ylamino)-4-methylphenyl)-5-(2-hydroxyethoxy)-4-(trifluoromethyl)picolinamide] is less than 0.02 µM.

Compound `Cc1ccc(NC(=O)CC2CC(C(F)(F)F)CCO2)cc1Nc1ncccc1-c1ncnc2[nH]cnc12` (centres unmarked) [IA-105, N-(3-((3-(9H-purin-6-yl)pyridin-2-yl)amino)-4-methylphenyl)-2-(4-(trifluoromethyl)tetrahydro-2H-pyran-2-yl)acetamide] had a GI50 of 0.02 to 0.1 µM. With `Cc1ccc(NC(=O)c2nccc(C(F)(F)F)c2Cl)cc1Nc1ncccc1-c1ncnc2[nH]cnc12` [IA-106, N-(3-(3-(9H-purin-6-yl)pyridin-2-ylamino)-4-methylphenyl)-3-chloro-4-(trifluoromethyl)picolinamide], the GI50 is less than 0.02 µM. The figure for `Cc1ccc(NC(=O)CN2CCC[C@@H](C(F)(F)F)C2)cc1Nc1ncccc1-c1ncnc2[nH]cnc12` [IA-107, (R)—N-(3-((3-(9H-purin-6-yl)pyridin-2-yl)amino)-4-methylphenyl)-2-(3-(trifluoromethyl)piperidin-1-yl)acetamide] is less than 0.02 µM; for `Cc1ccc(NC(=O)C23CC(C(F)(F)F)(CO2)C3)cc1Nc1ncccc1-c1ncnc2[nH]cnc12` [IA-108, N-(3-(3-(9H-purin-6-yl)pyridin-2-ylamino)-4-methylphenyl)-4-(trifluoromethyl)-2-oxabicyclo[2.1.1]hexane-1-carboxamide] it is 0.1 to 0.5 µM. The figure for `Cc1ccc(NC(=O)CN2CC[C@H](C(F)(F)F)C2)cc1Nc1ncccc1-c1ncnc2[nH]cnc12` [IA-109, (S)—N-(3-((3-(9H-purin-6-yl)pyridin-2-yl)amino)-4-methylphenyl)-2-(3-(trifluoromethyl)pyrrolidin-1-yl)acetamide] is less than 0.02 µM. To `Cc1ccc(NC(=O)CN2CCCCCC2)cc1Nc1ncccc1-c1ncnc2[nH]cnc12` [IA-110, N-(3-((3-(9H-purin-6-yl)pyridin-2-yl)amino)-4-methylphenyl)-2-(azepan-1-yl)acetamide] belongs 0.02 to 0.1 µM; to `Cc1ccc(NC(=O)CN2CC[C@@H](C(F)(F)F)C2)cc1Nc1ncccc1-c1ncnc2[nH]cnc12` [IA-111, (R)—N-(3-(3-(9H-purin-6-yl)pyridin-2-ylamino)-4-methylphenyl)-2-(3-(trifluoromethyl)pyrrolidin-1-yl)acetamide], less than 0.02 µM. For `Cc1ccc(NC(=O)CN2CCCCC(F)(F)C2)cc1Nc1ncccc1-c1ncnc2[nH]cnc12` [IA-112, N-(3-(3-(9H-purin-6-yl)pyridin-2-ylamino)-4-methylphenyl)-2-(3,3-difluoroazepan-1-yl)acetamide], the GI50 lay in the range of 0.1 to 0.5 µM.

`Cc1ccc(NC(=O)CC2CCCCCC2)cc1Nc1ncccc1-c1ncnc2[nH]cnc12` [IA-113, N-(3-((3-(9H-purin-6-yl)pyridin-2-yl)amino)-4-methylphenyl)-2-cycloheptylacetamide] registered a GI50 of less than 0.02 µM.

Compound `Cc1ccc(NC(=O)c2cc(C(F)(F)F)c(C)cn2)cc1Nc1ncccc1-c1ncnc2[nH]cnc12` [IA-114, N-(3-((3-(9H-purin-6-yl)pyridin-2-yl)amino)-4-methylphenyl)-5-methyl-4-(trifluoromethyl)picolinamide] yielded a concentration for 50% growth inhibition (GI50) of less than 0.02 µM. On to `Cc1ccc(NC(=O)c2cc(C(F)(F)F)c(F)cn2)cc1Nc1ncccc1-c1ncnc2[nH]cnc12` [IA-115, N-(3-((3-(9H-purin-6-yl)pyridin-2-yl)amino)-4-methylphenyl)-5-fluoro-4-(trifluoromethyl)picolinamide], for which the GI50 was less than 0.02 µM. The figure for `Cc1ccc(NC(=O)c2nccc(C(F)(F)F)c2F)cc1Nc1ncccc1-c1ncnc2[nH]cnc12` [IA-116, N-(3-((3-(9H-purin-6-yl)pyridin-2-yl)amino)-4-methylphenyl)-3-fluoro-4-(trifluoromethyl)picolinamide] is less than 0.02 µM; for `Cc1ccc(NC(=O)c2cc(C(F)(F)F)ccn2)cc1Nc1nccc(F)c1-c1ncnc2[nH]cnc12` [IA-117, N-(3-(4-fluoro-3-(9H-purin-6-yl)pyridin-2-ylamino)-4-methylphenyl)-4-(trifluoromethyl)picolinamide] it is 0.1 to 0.5 µM. To `Cc1ccc(NC(=O)c2cc(C(F)(F)F)ccn2)cc1Nc1ncc(F)cc1-c1ncnc2[nH]cnc12` [IA-118, N-(3-((5-fluoro-3-(9H-purin-6-yl)pyridin-2-yl)amino)-4-methylphenyl)-4-(trifluoromethyl)picolinamide] belongs 0.02 to 0.1 µM. The figure for `Cc1cc(C)c(Nc2ncccc2-c2ncnc3[nH]cnc23)cc1NC(=O)c1cc(C(F)(F)F)ccn1` [IA-119, N-(5-((3-(9H-purin-6-yl)pyridin-2-yl)amino)-2,4-dimethylphenyl)-4-(trifluoromethyl)picolinamide] is 0.1 to 0.5 µM.

In turn, `Cc1ccc(NC(=O)c2cc(C(F)(F)F)ccn2)cc1Nc1nccnc1-c1ncnc2[nH]cnc12` [IA-120, N-(3-(3-(9H-purin-6-yl)pyrazin-2-ylamino)-4-methylphenyl)-4-(trifluoromethyl)picolinamide] registered a GI50 of 0.02 to 0.1 µM. As to `Cc1ccc(NC(=O)c2cc(C(F)(F)F)ccn2)cc1Nc1nnccc1-c1ncnc2[nH]cnc12` [IA-121, N-(3-((4-(9H-purin-6-yl)pyridazin-3-yl)amino)-4-methylphenyl)-4-(trifluoromethyl)picolinamide], the GI50 is no less than 0.5 µM. The figure for `COc1nc2c(-c3nccnc3Nc3cc(NC(=O)c4cc(C(F)(F)F)ccn4)ccc3C)ncnc2[nH]1` [IA-122, N-(3-(3-(8-methoxy-9H-purin-6-yl)pyrazin-2-ylamino)-4-methylphenyl)-4-(trifluoromethyl)picolinamide] is 0.02 to 0.1 µM. The figure for `COc1nc2c(-c3cccnc3Nc3cc(NC(=O)c4cc(C(F)(F)F)ccn4)ccc3C)ncnc2[nH]1` [IA-123, N-(3-(3-(8-methoxy-9H-purin-6-yl)pyridin-2-ylamino)-4-methylphenyl)-4-(trifluoromethyl)picolinamide] is 0.02 to 0.1 µM; for `Cc1ccc(NC(=O)c2cc(C(F)(F)F)ccn2)cc1Nc1ncccc1-c1ncnc2[nH]c(OCCN(C)C)nc12` [IA-124, N-(3-(3-(8-(2-(dimethylamino)ethoxy)-9H-purin-6-yl)pyridin-2-ylamino)-4-methylphenyl)-4-(trifluoromethyl)picolinamide] it is 0.02 to 0.1 µM; for `Cc1ccc(NC(=O)c2cc(C(F)(F)F)ccn2)cc1Nc1ncccc1-c1ncnc2[nH]c(OCCO)nc12` [IA-125, N-(3-(3-(8-(2-hydroxyethoxy)-9H-purin-6-yl)pyridin-2-ylamino)-4-methylphenyl)-4-(trifluoromethyl)picolinamide] it is 0.02 to 0.1 µM.

As to `Cc1nc2c(-c3cccnc3Nc3cc(NC(=O)c4cc(C(F)(F)F)ccn4)ccc3C)ncnc2[nH]1` [IA-126, N-(4-methyl-3-((3-(8-methyl-9H-purin-6-yl)pyridin-2-yl)amino)phenyl)-4-(trifluoromethyl)picolinamide], the GI50 is less than 0.02 µM.

The values above are taken from patent US20240317752A1, “6-SUBSTITUTED-9H-PURINE DERIVATIVES AND RELATED USES” (Black Diamond Therapeutics, Inc., priority 2021, published 2024).
